{
  "source": "paper PMC9862819",
  "about": "“Structural Characterization of Murine Phosphodiesterase 5 Isoforms and Involvement of Cysteine Residues in Supramolecular Assembly” (International Journal of Molecular Sciences, 2023)",
  "key": {"MmPDE5A3 [1]": {"biological_target": "T1, MmPDE5A3 (Mus musculus, UniProt Q8CG03)", "assay": "[3H]cGMP hydrolysis assay; also spectrophotometric thiol titration and native PAGE", "format": "biochemical", "design": "gene Pde5a; full-length MmPDE5A3 isoform (823 amino acids common to the three isoforms), 3XFLAG tag"}, "MmPDE5A3 [2]": {"biological_target": "T1, MmPDE5A3", "assay": "native PAGE conformational shift; [3H]cGMP hydrolysis; added protection of Cys with sildenafil", "format": "binding", "design": "gene Pde5a; full-length MmPDE5A3 isoform (823 amino acids common to the three isoforms), 3XFLAG tag"}, "MmPDE5A3 [3]": {"biological_target": "T1, MmPDE5A3", "design": "gene Pde5a"}},
  "data": [
    {"smiles": "O=C(O)c1cc(SSc2ccc([N+](=O)[O-])c(C(=O)O)c2)ccc1[N+](=O)[O-]", "note": "[DTNB, 5,5-dithio-bis-(2-nitrobenzoic acid)]", "values": [
      {"measurement": "IC50", "setting": "MmPDE5A3 [1]", "value": "~30", "unit": "µM"}
    ]},
    {"smiles": "Nc1nc2c(ncn2[C@@H]2O[C@@H]3COP(=O)(O)O[C@H]3[C@H]2O)c(=O)[nH]1", "note": "[cGMP]", "values": [
      {"measurement": "native PAGE conformational shift; [3H]cGMP hydrolysis; added protection of Cys w", "setting": "MmPDE5A3 [2]", "value": "the conformation of D3 was also the main outcome of the binding of the substrate and inhibitor (cGMP and sildenafil"}
    ]},
    {"smiles": "CCCc1nn(C)c2c(=O)[nH]c(-c3cc(S(=O)(=O)N4CCN(C)CC4)ccc3OCC)nc12", "note": "[Sild, sildenafil]", "values": [
      {"measurement": "native PAGE conformational shift and protection of Cys from DTNB titration", "setting": "MmPDE5A3 [3]", "value": "the reactive Cys were close to the active site and were shielded by the inhibitor"}
    ]}
  ]
}
